{"source": "PubChem BioAssay (NCI)", "note": "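Each compound was tested at five concentrations against cells in 96-well plates for 48 hours. The concentration for full growth arrest is given as TGI.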", "data": [{"tested_on": "NCI/ADR-RES ovarian", "assay": "NCI anticancer screen, dose series, 48 h", "units": {"TGI": "µM"}, "values": [{"smiles": "O=c1oc2ccc([N+](=O)[O-])cc2c(Nc2ccc3c(c2)Oc2ccccc2O3)c1[N+](=O)[O-]", "TGI": "> 100"}, {"smiles": "CC1=C(CO)C(=O)O[C@@H]([C@@H](CO)[C@H]2CCC3C4C[C@@H](O)[C@@]5(O)CC=CC(=O)[C@]5(C)C4CC[C@@]32C)C1", "note": "(stereo partly drawn)", "TGI": "> 100"}, {"smiles": "Cn1c2ccccc2c(=O)c2cccc(C(=O)NC(CCCN=C(N)N)C(=O)O)c21", "note": "(stereo not drawn)", "TGI": 96}, {"smiles": "O=C(O)/C=c1/c2ccccc2n2nc3ccccc3c12", "TGI": 81}, {"smiles": "O=C1c2ccccc2C2(c3ccc(Cl)cc3)N[C@H]3CCCC[C@@H]3N12", "note": "(stereo partly drawn)", "TGI": "> 100"}]}, {"tested_on": "RXF 393 renal", "assay": "NCI anticancer screen, dose series, 48 h", "units": {"TGI": "µM"}, "values": [{"smiles": "C=C1C(=O)C=C[C@]2(C)CC[C@H]3C(=C)C(=O)O[C@@H]3[C@@H]12", "TGI": 4.47}, {"smiles": "CC12CCC(O)CC1CCC1C2CCC2(C)C(C(=O)CC(O)C(F)(F)F)CCC12", "note": "(stereo not drawn)", "TGI": 29.3}, {"smiles": "CC(C)(C)OC(=O)NCCCNC1(c2cc3ccccc3s2)CCCCC1", "TGI": 29.8}, {"smiles": "CC(C)(C)C(=O)CC1=Nc2ccccc2SC1(O)CC(=O)C(C)(C)C", "note": "(stereo not drawn)", "TGI": 65.8}, {"smiles": "N#CC1=C(N)N(c2ccccc2)C(c2ccccc2)C1(C#N)C#N", "note": "(stereo not drawn)", "TGI": 33.6}, {"smiles": "O=C1/C(=C/c2ccc(Cl)cc2)CSc2ccccc21", "TGI": 36.3}, {"smiles": "CCC/C(Cl)=N\\OC(=O)Nc1ccc(OC(F)(F)F)cc1", "TGI": 31.2}, {"smiles": "COc1cccc(/C=N/n2c(C)n[nH]c2=O)c1", "TGI": "> 100"}, {"smiles": "Cc1ccc(S(=O)(=O)NC(=O)N[C@@H](Cc2cnc[nH]2)C(=O)O)cc1", "TGI": "> 100"}, {"smiles": "CC(=O)OCC1OC(n2c3c(cc(C#N)c2=S)CCCCC3)C(OC(C)=O)C(OC(C)=O)C1OC(C)=O", "note": "(stereo not drawn)", "TGI": "> 100"}, {"smiles": "CCN1CCC(O)(/C=C/c2ccc(C)cc2C)C(C(=O)/C=C/c2ccc(C)cc2C)C1", "note": "(stereo not drawn)", "TGI": 14.3}, {"smiles": "Cc1cc(S(=O)(=O)Nc2nc3cc(-c4ccc(Cl)cc4)sc3c(=O)n2N)c(S)cc1Cl", "TGI": "> 100"}, {"smiles": "[N-]=[N+]=NC1=C(c2ccccn2)C(=O)c2cccc3cccc1c23", "TGI": "> 100"}, {"smiles": "O=C(O)c1ccc(OCc2nc3cc(C(F)(F)F)ccc3nc2-c2ccccc2)cc1", "TGI": "> 100"}, {"smiles": "COc1ccc(/C=C2\\N=C(SC)NC2=O)cc1", "TGI": "> 100"}, {"smiles": "Nc1ccc(C(=O)N2CCC[C@H]2CO)c(N)c1", "TGI": "> 100"}, {"smiles": "O=c1oc2ccc([N+](=O)[O-])cc2c(Nc2ccc3c(c2)Oc2ccccc2O3)c1[N+](=O)[O-]", "TGI": "> 100"}, {"smiles": "CC1=C(CO)C(=O)O[C@@H]([C@@H](CO)[C@H]2CCC3C4C[C@@H](O)[C@@]5(O)CC=CC(=O)[C@]5(C)C4CC[C@@]32C)C1", "note": "(stereo partly drawn)", "TGI": 92.9}, {"smiles": "O=C(O)/C=c1/c2ccccc2n2nc3ccccc3c12", "TGI": "> 100"}, {"smiles": "O=C1c2ccccc2C2(c3ccc(Cl)cc3)N[C@H]3CCCC[C@@H]3N12", "note": "(stereo partly drawn)", "TGI": "> 100"}]}, {"tested_on": "SF-268 CNS", "assay": "NCI anticancer screen, dose series, 48 h", "units": {"TGI": "µM"}, "values": [{"smiles": "C=C1C(=O)C=C[C@]2(C)CC[C@H]3C(=C)C(=O)O[C@@H]3[C@@H]12", "TGI": 11.7}, {"smiles": "CC12CCC(O)CC1CCC1C2CCC2(C)C(C(=O)CC(O)C(F)(F)F)CCC12", "note": "(stereo not drawn)", "TGI": "> 100"}, {"smiles": "CC(C)(C)OC(=O)NCCCNC1(c2cc3ccccc3s2)CCCCC1", "TGI": 33.8}, {"smiles": "CC(C)(C)C(=O)CC1=Nc2ccccc2SC1(O)CC(=O)C(C)(C)C", "note": "(stereo not drawn)", "TGI": 81.1}, {"smiles": "N#CC1=C(N)N(c2ccccc2)C(c2ccccc2)C1(C#N)C#N", "note": "(stereo not drawn)", "TGI": 55.4}, {"smiles": "C=CCOc1ccc(C2(O)c3ccccc3C3=NCCCN32)cc1", "note": "(stereo not drawn)", "TGI": "> 100"}, {"smiles": "O=C1/C(=C/c2ccc(Cl)cc2)CSc2ccccc21", "TGI": 73}, {"smiles": "CCC/C(Cl)=N\\OC(=O)Nc1ccc(OC(F)(F)F)cc1", "TGI": "> 84.7"}, {"smiles": "COc1cccc(/C=N/n2c(C)n[nH]c2=O)c1", "TGI": "> 100"}, {"smiles": "Cc1ccc(S(=O)(=O)NC(=O)N[C@@H](Cc2cnc[nH]2)C(=O)O)cc1", "TGI": "> 100"}, {"smiles": "CC(=O)OCC1OC(n2c3c(cc(C#N)c2=S)CCCCC3)C(OC(C)=O)C(OC(C)=O)C1OC(C)=O", "note": "(stereo not drawn)", "TGI": "> 100"}, {"smiles": "CCN1CCC(O)(/C=C/c2ccc(C)cc2C)C(C(=O)/C=C/c2ccc(C)cc2C)C1", "note": "(stereo not drawn)", "TGI": 9.12}, {"smiles": "S=C(Nc1ccc2c(c1)oc1ccccc12)c1cccnc1", "TGI": 87.4}, {"smiles": "Cc1cc(S(=O)(=O)Nc2nc3cc(-c4ccc(Cl)cc4)sc3c(=O)n2N)c(S)cc1Cl", "TGI": "> 100"}, {"smiles": "[N-]=[N+]=NC1=C(c2ccccn2)C(=O)c2cccc3cccc1c23", "TGI": 65.9}, {"smiles": "C=C([C@@]1(O)C[C@H]2[C@H](CCC2(OC)OC)[C@@H]2c3ccccc3O[C@@H]21)[Si](C)(C)C", "TGI": "> 100"}, {"smiles": "O=C(O)c1ccc(OCc2nc3cc(C(F)(F)F)ccc3nc2-c2ccccc2)cc1", "TGI": "> 100"}, {"smiles": "COc1ccc2c(c1)CCN1CCc3ccccc3CC21", "note": "(stereo not drawn)", "TGI": "> 100"}, {"smiles": "CN(C)c1ccc(C2SCC(=O)N2c2ccc(Oc3ccc(Cl)cc3)c(Cl)c2)cc1", "note": "(stereo not drawn)", "TGI": 37.9}, {"smiles": "COc1ccc(/C=C2\\N=C(SC)NC2=O)cc1", "TGI": "> 100"}, {"smiles": "Nc1ccc(C(=O)N2CCC[C@H]2CO)c(N)c1", "TGI": "> 100"}, {"smiles": "O=c1oc2ccc([N+](=O)[O-])cc2c(Nc2ccc3c(c2)Oc2ccccc2O3)c1[N+](=O)[O-]", "TGI": "> 100"}, {"smiles": "CC1=C(CO)C(=O)O[C@@H]([C@@H](CO)[C@H]2CCC3C4C[C@@H](O)[C@@]5(O)CC=CC(=O)[C@]5(C)C4CC[C@@]32C)C1", "note": "(stereo partly drawn)", "TGI": "> 100"}, {"smiles": "Cn1c2ccccc2c(=O)c2cccc(C(=O)NC(CCCN=C(N)N)C(=O)O)c21", "note": "(stereo not drawn)", "TGI": "> 100"}, {"smiles": "O=C(O)/C=c1/c2ccccc2n2nc3ccccc3c12", "TGI": "> 100"}, {"smiles": "O=C1c2ccccc2C2(c3ccc(Cl)cc3)N[C@H]3CCCC[C@@H]3N12", "note": "(stereo partly drawn)", "TGI": "> 100"}]}, {"tested_on": "SF-295 CNS", "assay": "NCI anticancer screen, dose series, 48 h", "units": {"TGI": "µM"}, "values": [{"smiles": "C=C1C(=O)C=C[C@]2(C)CC[C@H]3C(=C)C(=O)O[C@@H]3[C@@H]12", "TGI": 30.6}, {"smiles": "CC12CCC(O)CC1CCC1C2CCC2(C)C(C(=O)CC(O)C(F)(F)F)CCC12", "note": "(stereo not drawn)", "TGI": 26.7}, {"smiles": "CC(C)(C)OC(=O)NCCCNC1(c2cc3ccccc3s2)CCCCC1", "TGI": 28.4}, {"smiles": "CC(C)(C)C(=O)CC1=Nc2ccccc2SC1(O)CC(=O)C(C)(C)C", "note": "(stereo not drawn)", "TGI": 68.6}, {"smiles": "N#CC1=C(N)N(c2ccccc2)C(c2ccccc2)C1(C#N)C#N", "note": "(stereo not drawn)", "TGI": 61.1}, {"smiles": "C=CCOc1ccc(C2(O)c3ccccc3C3=NCCCN32)cc1", "note": "(stereo not drawn)", "TGI": "> 100"}, {"smiles": "CCC/C(Cl)=N\\OC(=O)Nc1ccc(OC(F)(F)F)cc1", "TGI": 31.7}]}]}
